“Also recorded” adds a separate entry of the source.
What was measured:
Ptchd1 KO TRN neurons = test: Whole-cell patch-clamp rebound burst firing in acute brain slices, Ptchd1 KO mice; format: cell-based; conditions: LY379268 1 μM, holding potentials −85 mV to −50 mV
Description: (§1) For conducting slice electrophysiology analysis, whole-cell patch-clamp recordings were performed using horizontal slices for the rebound bursting assays and angled-coronal thalamocortical slices for the synaptic optogenetics experiments (Agmon et al., 1991). 21-35 day old male C57BL6 mice and Ptchd1 Y/− (knockout) mice were used. Animals were transcardially perfused under isoflurane anesthesia with an ice-cold cutting solution (194 mM Sucrose, 30 mM NaCl, 4.5 mM KCl, 1.2 mM NaH2PO4, 10 mM Glucose, 2 mM MgCl2, 0.2 mM CaCl2, and 26 mM NaHCO3). Mice were then decapitated and the brains were carefully dissected out. Both cerebellum and olfactory bulb were removed from the brain and were placed and glued onto the stage of a Leica Vibratome with the ventral surface down and the pial surface towards the blade. 250 micron thick slices containing the TRN were then collected and recovered in regular artificial cerebrospinal fluid (aCSF; 119 mM NaCl, 2.3 mM KCl, 1 mM NaH2PO4; 11 mM Glucose, 1.3 mM MgCl2, 2.5 mM CaCl2), 26 mM NaHCO3) heated to 32° C. for 10 minutes and then at room temperature for at least 1 hr. All buffers were continuously bubbled with 95% O2/5% C02. Slices were then transferred to a submersion recording chamber where they were perfused with aCSF at a rate of 2 ml/min at room temperature. […]

[1] = tested on: low-threshold T-type Ca2+ channels; test: T type current recording in TRN neurons; format: cell-based, mice; conditions: in the presence of LY379268
Description: For conducting slice electrophysiology analysis, whole-cell patch-clamp recordings were performed using horizontal slices for the rebound bursting assays and angled-coronal thalamocortical slices for the synaptic optogenetics experiments (Agmon et al., 1991). 21-35 day old male C57BL6 mice and Ptchd1 Y/− (knockout) mice were used. Animals were transcardially perfused under isoflurane anesthesia with an ice-cold cutting solution (194 mM Sucrose, 30 mM NaCl, 4.5 mM KCl, 1.2 mM NaH2PO4, 10 mM Glucose, 2 mM MgCl2, 0.2 mM CaCl2, and 26 mM NaHCO3). Mice were then decapitated and the brains were carefully dissected out. Both cerebellum and olfactory bulb were removed from the brain and were placed and glued onto the stage of a Leica Vibratome with the ventral surface down and the pial surface towards the blade. […]
The channel conductance of SK channels and low-threshold T-type Ca2+ channels at different holding membrane potentials ranging from −80 mV to −50 mV in the presence or absence of SK channel blockers was evaluated in order to further determine how the activation of mGluR2/3 in TRN neurons enhanced the rebound bursting.

cortico-TRN synapses = test: Optogenetically evoked EPSCs in patched TRN neurons, cortico-TRN pathway; format: cell-based, mice
Description: For conducting slice electrophysiology analysis, whole-cell patch-clamp recordings were performed using horizontal slices for the rebound bursting assays and angled-coronal thalamocortical slices for the synaptic optogenetics experiments (Agmon et al., 1991). 21-35 day old male C57BL6 mice and Ptchd1 Y/− (knockout) mice were used. Animals were transcardially perfused under isoflurane anesthesia with an ice-cold cutting solution (194 mM Sucrose, 30 mM NaCl, 4.5 mM KCl, 1.2 mM NaH2PO4, 10 mM Glucose, 2 mM MgCl2, 0.2 mM CaCl2, and 26 mM NaHCO3). Mice were then decapitated and the brains were carefully dissected out. Both cerebellum and olfactory bulb were removed from the brain and were placed and glued onto the stage of a Leica Vibratome with the ventral surface down and the pial surface towards the blade. 250 micron thick slices containing the TRN were then collected and recovered in regular artificial cerebrospinal fluid (aCSF; 119 mM NaCl, 2.3 mM KCl, 1 mM NaH2PO4; 11 mM Glucose, 1.3 mM MgCl2, 2.5 mM CaCl2), 26 mM NaHCO3) heated to 32° C. for 10 minutes and then at room temperature for at least 1 hr. All buffers were continuously bubbled with 95% O2/5% C02. Slices were then transferred to a submersion recording chamber where they were perfused with aCSF at a rate of 2 ml/min at room temperature. Patch recording pipettes were pulled using a Flaming/Brown micropipette puller (Sutter Instruments) and Borosilicate glass (KG33, King Precision Glass). The DC resistances were ˜4-6 MΩ. Potassium methanesulfonate based internal solution (140 mM KMeSO3; 10 mM KCl; 10 mM HEPES; 0.1 mM EGTA; 4 mM Mg-ATP; 0.2 mM Na-GTP; 10 mM hosphocreatine) was used. Neurons were visualized using infrared differential interference contrast (IR-DIC) microscopy (Olympus, BX51W1) with an upright microscope digital camera.
To study the changes in the acute somatosensory thalamocortical or horizontal brain areas, 21-25 days old Nex-Cre or VgluT2-Cre mice were anesthetized with isoflurane while placed in a small animal stereotaxic apparatus (David Kopf Instruments, CA, USA) and were injected bilaterally with 280 nl of mcherry-dflox.hChR2.EF1.AAV1 using a Nanoject (Drummond Scientific, Broomall, Pa.) via glass pipettes with […] diameter tips in somatosensory cortex (S1) and ventrobasal thalamic complex (VB). Coordinates from the bregma for S1: AP −0.7, ML 2.4 and DV 1.2 and for VB: AP −1.6, ML 1.5 and DV 3.5. The pipette was held in the final position for 10 min after injection before withdrawal from the brain. The incision was closed with vetbond and after surgery mice were injected with analgesics (SR-Bupronex 1 mg/kg) every 72 hours or as needed. […]
After allowing 1-2 weeks for mcherry-dflox.hChR2.EF1.AAV1 expression, acute somatosensory thalamocortical or horizontal brain slices were freshly obtained for in vitro recording and optogenetic stimulation (250 um thick, thalamocortical slices containing TRN from angled-coronal sections; Agmon and Connors, 1991) for optogenetic analysis. In brief, patch clamp recordings in voltage clamp configuration were performed while the Cortico-TRN or Thalamic-TRN pathway was activated by applying a blue LED (400-450 nm) light pulses (Lumen 300-LED Fluorescence Excitation Illumination System). For synaptic stimulation, neurons were held at −70 mV while 0.1-1.5 ms flashes were delivered directly to the recorded cell soma delivered through the 40× water immersion objective. […]

TRN neurons = test: Spontaneous EPSC recordings from TRN neurons, Ptchd1 KO mice; format: cell-based; conditions: LY379268, with PTX
Description: as §1

Ptchd1 KO mice = test: Open field test of locomotor activity, Ptchd1 KO mice; format: in vivo; conditions: 90 minutes
Description: For performing the open field test, mice were allowed to habituate to the behavioral testing room for 1 hour before the experiment. The locomotor activity in mice was evaluated over a 90 minute period in an automated Omnitech Digiscan apparatus (AccuScan Instruments). Locomotor activity was assessed as total distance traveled (m). For drug treatment experiments, mice received an intraperitoneal injection 15 minutes before the assay and then where placed kindly in the left corner, head facing into the corner.
The effects of mGluR2/3 activation on the locomotor activity of WT mice and Ptchd1 mutant mice were evaluated. In brief, all mice were treated with mGluR2/3 agonist, LY379268, at three different dosages (1 mg/kg, 5 mg/kg and 10 mg/kg) for open-field testing.
Here, whether mGluR3 activation would rescue the hyperactivity phenotype of Ptchd1 KO mice was evaluated. Locomotor activity estimated as total distance travelled (in) was assessed over a 90 min period in an automated Omnitech Digiscan apparatus. For drug treatment experiments, mice were placed in the open-field arena for 30 minutes prior to Mavalon 63 (5 mg/kg and 10 mg/kg in saline; i.p.), or vehicle injections before being returned to the arena.

N[C@@]1(C(=O)O)COC2C(C(=O)O)C21 (stereo in doubt) [LY379268, (1R,4R,5S,6R)-4-Amino-2-oxabicyclo[3.1.0] hexane-4,6-dicarboxylic acid]
number of rebound burst firings (Ptchd1 KO TRN neurons): significantly increased the number of rebound repetitive bursting; also recorded: significantly increased the number of rebound burst firings; also recorded: Significant changes were found between −72 mV and −67 mV holding potential | current mediated by T (max inward currents, T-type Ca2+ channel conductance) [1]: significantly increased | paired-pulse ratio (PPR) (cortico-TRN synapses; cortico-TRN synapses, before vs after bath application): significantly changed as well as the paired-pulse ratio; also recorded: significant changes in the size of paired-pulse ratio (PPR) | amplitude of optogenetic evoked EPSCs (cortico-TRN synapses; cortico-TRN, 20 Hz, LY379268 1 μM bath application): amplitude was significantly changed | frequency of sEPSCs (TRN neurons): significantly reduced the frequency | total distance traveled (Ptchd1 KO mice; LY379268 5 mg/kg i.p.): traveled significantly less distances to a comparable level of wild type mice | total distance traveled (Ptchd1 KO mice; LY379268 10 mg/kg i.p.): traveled significantly less distances to a comparable level of wild type mice
